Experimental data published in publication PMC7163398 (ACS infectious diseases, 2017).

Tested on: 17S resistant S. aureus USA300 strains
Experiment: Susceptibility of 17S resistant strains
Assay type: cell-based, Staphylococcus aureus
Details: 17S resistant S. aureus USA300 strains tested against 1S

humimycin A [1S]
cross-resistance of 17S resistant strains: cross-resistance
